Data: patent US10849904B2, “Methods for treatment of retinal disease by photoreceptor gene expression modulation” (University of Washington, priority 2015, dated 2020)
“Also recorded” adds a separate entry of the source.

Legend:
[1] = test system: Explants from P12 Nrl-eGFP mice; test: P12 Nrl-eGFP mouse retinal explants, 5 DIV, immunofluorescence and EdU; assay type: cell-based
Protocol: Previous loss of function genetic data has shown that Nr2e3 is required for rod photoreceptor development, but it is not known whether there is a continuing requirement for Nr2e3 in mature rods. […] To further examine the effects of PR1 at these late developmental stages, the effects of PR1 on P12 retinal explants by immunohistochemical analysis were studied (FIG. 8A). Explants from P12 Nrl-eGFP mice were cultured for 5 days in either DMSO or 1 μM PR1 containing media, and then fixed and processed for immunofluorescent labeling with anti-rhodopsin and anti-S opsin antibodies.
To determine if PR1 affects retinal cells other than photoreceptors, bipolar cells (PKCα, Chx10), amacrine cells (HuCD), and Muller glia (Sox2) were quantified in explants treated with DMSO or 1 μM PR1 for 5 DIV. […] EdU (5-ethynyl-2′-deoxyuridine) was added to the cultures to determine whether PR1 might have a similar effect.
(§1) Intact retinas without RPE from mice of various strains and ages as indicated were explanted on 0.4 μm pore tissue culture inserts (Millipore) as previously described (Ueki, Y., et al., P53 is required for the developmental restriction in Muller glial proliferation in mouse retina. Glia, 2012. 60(10): p. 1579-89; Ueki, Y., et al., A transient wave of BMP signaling in the retina is necessary for Muller glial differentiation. Development, 2015. 142(3): p. 533-43. Full media (DMEM/F12 (1:1) containing 1% dialyzed FBS, 1% Pen Strep, 0.3% D+ glucose, 2% B27, and 1% N2) changes were performed every other day and small molecules were used at 0.1 μM to 10 μM. Where indicated, EdU (Invitrogen) was included in the media at 5 μg/mL and visualized by staining with the Click-iT EdU Alexa Fluor kit (Thermo Fisher Scientific). For human retinal explant cultures, tissue from 113 day post-conception fetuses was obtained from the University of Washington Birth Defects Laboratory and explanted on 0.4 μm pore tissue culture inserts (Millipore) in media (Neurobasal A with 1% FBS, 1% Pen Strep, 1% N2, 1% B27) containing 10 μM Photoregulin1 or an equal volume of DMSO.
Retinal explants or eyecups were fixed in 4% PFA in 1×PBS for 20 minutes at room temperature and then cryoprotected in 30% sucrose in 1×PBS overnight at 4° C. Samples were embedded in OCT (Sakura Finetek), frozen on dry ice, and then sectioned at 14-16 μm on a cryostat (Leica). Slides were blocked with a solution containing 10% Normal Horse Serum (Vector Labs) and 0.5% Triton X-100 (Sigma-Aldrich) in 1×PBS for 1 hour at room temperature and then stained overnight at 4° C. with primary antibodies diluted in blocking solution. Slides were washed three times with 1×PBS the following day and then incubated in secondary antibodies (Life Technologies) diluted in blocking solution for 2 hours at room temperature, stained with DAPI (Sigma-Aldrich), washed, and coverslipped using Fluoromount-G (SouthernBiotech). An Olympus FluoView FV1000 was used for confocal microscopy.

[2] = test system: intact retinas from P12 wild type mice; test: P12 mouse retinal explant culture, qPCR for rod gene expression; assay type: cell-based; details: P12 explants; for dose-response, Nrl, Nr2e3, and Rho expression: 2-3 days; for relative rhodopsin (Rho) expression: 1 μM, 2 days
Source text: To identify functional Nr2e3 antagonists, compounds were cheminformatically searched and structural analogs of a putative Nr2e3 interacting compound with unknown function were collected. See FIGS. 2 and 4 for the structures of the compounds. The collected compounds were then screened in a physiologically relevant primary culture assay using intact retinas from postnatal day 12-13 (P12-13) C57BL/6 mice for suppression of Rho expression (See FIG. 6A). After a 2 day culture period with media containing DMSO or compounds at 1 μM, the retinas were collected and assessed Rho expression by qPCR. Rho was chosen because it is a well-described target of Nr2e3 in rod photoreceptors. […] This analysis also provided an initial structure-activity relationship.
Nr2e3 loss-of-function mutations lead to a reduction in rod gene expression. To determine whether the same was true for PR1 (FIG. 6D), explant cultures of P12 retina as above were treated and assayed for other rod photoreceptor genes. After 2 days in culture, PR1 decreased the expression of the rod specific genes Nrl, Nr2e3, Rho, Gnat1, and Pde6b compared to DMSO treatment by qPCR analysis (FIG. 6C). […] To determine the dose-response relationship between PR1 concentration and expression of rod genes, retinas from P12 mice were explanted in media containing DMSO or 0.1, 1, 5, or 10 μM PR1 for 2-3 days and assayed Nrl, Nr2e3, and Rho expression by qPCR. […] PR1 was tested to determine whether it could cause a reduction in Rho expression in human rod photoreceptors as well. Pairs of 113 day post-conception retinas were explanted in media with DMSO or 10 μM PR1 for 7 or 23 days. After 7 and 23 days in culture, PR1 decreased the expression of Rho compared to DMSO treatment (FIG. 6F), similar to the effect observed in mouse retinal explants.
as §1
RNA was isolated using TRIzol (Invitrogen) and cDNA was synthesized using the iScript cDNA synthesis kit (Bio-Rad) following an intervening DNase treatment with RQ1 RNase-free DNase (Promega). SSO Fast (Bio-Rad) was used for quantitative real-time PCR. For analysis, values were normalized to Gapdh and ΔΔCt between DMSO and compound-treated samples was expressed as percent of DMSO treated controls (100*2^ΔΔCt). Two-way Student's t-tests were performed on ΔCt values.

## Cc1cc(C)cc(NC(=O)CCc2nc3sc4c(c3c(=O)[nH]2)CCCC4)c1 [PR1, N-(3,5-dimethylphenyl)-3-(4-oxo-5,6,7,8-tetrahydro-3H-[1]benzothiolo[2,3-d]pyrimidin-2-yl)propanamide]
[1]; P12 explants, 1 μM, 5 days
  number of S opsin+ cells in the ONL: increase in the number of S opsin+ cells
  rhodopsin staining in Nrl-GFP-positive rods: dramatic decrease in rhodopsin staining
[1]; P12 explants, 5 DIV, EdU in media
  number of EdU labeled cells: increase in the number of EdU labeled cells
[1]; explants, 1 μM, 5 DIV
  migration of the Muller glial (Sox2+) nuclei into the ONL: increase in the migration
[1]; explants, 1 μM, 5 DIV, vs DMSO
  bipolar cells (PKCα, Chx10), amacrine cells (HuCD), and Muller glia (Sox2): No differences
[2]; 0.1 uM
  dose-response, Nrl, Nr2e3, and Rho expression: Some effect
[2]; vs DMSO
  relative rhodopsin (Rho) expression: substantially decrease Rho expression; also recorded: decreased
[2]; vs DMSO, listed as CA88
  relative rhodopsin (Rho) expression: reducing rhodopsin expression
[2]; 2 days in culture, vs DMSO
  Crx expression: did not significantly decrease
  Gnat1 expression: decreased
  Gnb1 expression: did not significantly decrease
  Nr2e3 expression: decreased
  Nrl expression: decreased
  Pde6b expression: decreased
[2]; higher concentrations (1, 5, or 10 μM)
  dose-response, Nrl, Nr2e3, and Rho expression: statistically significant reductions
